Reference: patent publication US6737383B1, “Herbicidal oxadiazolidines” (priority 1999, dated 2004)

Legend:
bedstraw = experiment: Test B pre/postemergence bedstraw; type: in vivo, Galium aparine
Outline: (§1)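 Herbicidal effect was estimated by eye on a ten-point control scale after plants spent twelve to sixteen days in a greenhouse following soil or foliar treatment. Foliar sprays targeted plants at one to four leaves; all doses were formulated in a non-phytotoxic solvent with surfactant.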

blackgrass = experiment: Test B pre/postemergence blackgrass; type: in vivo, Alopecurus myosuroides
Outline: as §1

surinam grass = experiment: Test B pre/postemergence surinam grass; type: in vivo, Brachiaria decumbens
Outline: as §1

cocklebur = experiment: Test B pre/postemergence cocklebur; type: in vivo, Xanthium strumarium
Outline: as §1

corn = experiment: Test B pre/postemergence corn; type: in vivo, Zea mays
Outline: as §1

crabgrass = experiment: Test B pre/postemergence crabgrass; type: in vivo, Digitaria sanguinalis
Outline: as §1

giant foxtail = experiment: Test B pre/postemergence giant foxtail; type: in vivo, Setaria faberii
Outline: as §1

pigweed = experiment: Test B pre/postemergence pigweed; type: in vivo, Amaranthus retroflexus
Outline: as §1

soybean = experiment: Test B pre/postemergence soybean; type: in vivo, Glycine max
Outline: as §1

sugar beet = experiment: Test B pre/postemergence sugar beet; type: in vivo, Beta vulgaris; details: for Plant response rating, Sugarbeets: Rate 250 g/ha
Outline: as §1

velvetleaf = experiment: Test B pre/postemergence velvetleaf; type: in vivo, Abutilon theophrasti; details: for Plant response rating, Velvetleaf: Rate 250 g/ha
Outline: as §1

wheat = experiment: Test B pre/postemergence wheat; type: in vivo, Triticum aestivum; details: for Plant response rating, Wheat: Rate 250 g/ha
Outline: as §1

wild oat = experiment: Test B pre/postemergence wild oat; type: in vivo, Avena fatua; details: for Plant response rating, Wild oats: Rate 250 g/ha
Outline: as §1

purple nutsedge = experiment: Test B pre/postemergence purple nutsedge; type: in vivo, Cyperus rotundus
Outline: as §1

rice = experiment: Test B flood test rice; type: in vivo, Oryza sativa
Outline: (§2)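 Each value is a visual injury score relative to controls, with 10 meaning complete control and 0 no effect. Evaluation took place twelve to sixteen days after the 2-leaf-stage plants were treated and kept in the greenhouse.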

duck salad = experiment: Test B flood test duck salad; type: in vivo, Heteranthera limosa
Outline: as §2

[1] = Postemergence, Rate 62 g/ha, scale 0 to 10, 0 is no effect, 10 is complete control
[2] = Postemergence, Rate 250 g/ha, scale 0 to 10, 0 no effect, 10 complete control
[3] = Preemergence, Rate 62 g/ha, scale 0 to 10 (0 no effect, 10 complete control)
[4] = Preemergence, Rate 125 g/ha, scale 0 to 10 (0 no effect, 10 complete control)
[5] = Preemergence, Rate 250 g/ha, scale of 0 to 10 where 0 is no effect and 10 is complete control
[6] = Preemergence, Rate 500 g/ha, scale 0 to 10 (0 no effect, 10 complete control)
[7] = Rate 125 g/ha, Postemergence, scale 0 to 10, 0 no effect, 10 complete control
[8] = Postemergence, Rate 125 g/ha, scale of 0 to 10 where 0 is no effect and 10 is complete control
[9] = Rate 62 g/ha, Postemergence, scale of 0 to 10 where 0 is no effect and 10 is complete control
[10] = Rate 500 g/ha, Postemergence, scale 0 to 10, 0 no effect, 10 complete control
[11] = Rate 250 g/ha, Postemergence, scale 0 to 10, 0 is no effect, 10 is complete control
[12] = Preemergence, Rate 125 g/ha, 0 is no effect, 10 is complete control
[13] = Preemergence, scale of 0 to 10 where 0 is no effect and 10 is complete control
[14] = Postemergence, scale 0 to 10, 0 is no effect, 10 is complete control
[15] = Postemergence (flood test species), Rate 125 g/ha, scale of 0 to 10 where 0 is no effect and 10 is complete control
[16] = Rate 62 g/ha, Postemergence section, flood test species, scale of 0 to 10 where 0 is no effect and 10 is complete control
[17] = Rate 250 g/ha, headed Pre-emergence (flood test species), scale 0 to 10 (0 no effect, 10 complete control)
[18] = Rate 500 g/ha, headed Pre-emergence (flood test species), scale 0 to 10 (0 no effect, 10 complete control)
[19] = Rate 500 g/ha, listed under Postemergence (flood test species), scale 0 to 10, 0 no effect, 10 complete control
[20] = Rate 1000 g/ha, Pre-emergence (as headed), scale 0 to 10
[21] = Rate 2000 g/ha, Pre-emergence (as headed), scale 0 to 10

With `CC(C)N(C(=O)n1oc(=O)n(C(C)C)c1=O)c1ccc(F)cc1F` [Compound 109] the “Bedstraw plant response rating” value (bedstraw; [1]) was 6, the “Bedstraw plant response rating” value (bedstraw; [2]) was 9 and the “Bedstraw plant response rating” value (bedstraw; [3]) was 8. For the same molecule, the “Plant response rating, Bedstraw” value (bedstraw; [4]) was 10, the “Plant response rating, Bedstraw” value (bedstraw; [5]) was 10 and the “Bedstraw plant response rating” value (bedstraw; [6]) was 10. For the same molecule, the “Bedstraw plant response rating” value (bedstraw; [7]) was 8, the “Blackgrass plant response rating” value (blackgrass; [8]) was 8 and the “Blackgrass plant response rating” value (blackgrass; [2]) was 8. The “Blackgrass plant response rating” value (blackgrass; [3]) was 8, the “Plant response rating, Blackgrass” value (blackgrass; [4]) was 8 and the “Plant response rating, Blackgrass” value (blackgrass; [5]) was 10. The “Blackgrass plant response rating” value (blackgrass; [6]) was 10, the “Blackgrass plant response rating” value (blackgrass; [9]) was 7 and the “Blackgrass plant response rating” value (blackgrass; [10]) was 8. For the same molecule, the “B. signalgrass plant response rating” value (surinam grass; [1]) was 7, the “B. signalgrass plant response rating” value (surinam grass; [2]) was 8 and the “B. signalgrass plant response rating” value (surinam grass; [3]) was 9. For the same molecule, the “Plant response rating, B. signalgrass” value (surinam grass; [4]) was 9, the “Plant response rating, B. signalgrass” value (surinam grass; [5]) was 10 and the “B. signalgrass plant response rating” value (surinam grass; [6]) was 10. For the same molecule, the “B. signalgrass plant response rating” value (surinam grass; [7]) was 7, the “B. signalgrass plant response rating” value (surinam grass; Rate 500 g/ha, Postemergence, scale of 0 to 10 where 0 is no effect and 10 is complete control) was 8 and the “Cocklebur plant response rating” value (cocklebur; [8]) was 3. The “Cocklebur plant response rating” value (cocklebur; [2]) was 4, the “Cocklebur plant response rating” value (cocklebur; [3]) was 0 and the “Plant response rating, Cocklebur” value (cocklebur; [4]) was 0. The “Plant response rating, Cocklebur” value (cocklebur; [5]) was 0, the “Cocklebur plant response rating” value (cocklebur; [6]) was 5 and the “Cocklebur plant response rating” value (cocklebur; [9]) was 2. For the same molecule, the “Cocklebur plant response rating” value (cocklebur; [10]) was 5, the “Corn plant response rating” value (corn; [8]) was 0 and the “Corn plant response rating” value (corn; [2]) was 3. The “Corn plant response rating” value (corn; [3]) was 0, the “Plant response rating, Corn” value (corn; [4]) was 3 and the “Plant response rating, Corn” value (corn; [5]) was 7. The “Corn plant response rating” value (corn; [6]) was 9, the “Corn plant response rating” value (corn; [9]) was 0 and the “Corn plant response rating” value (corn; [10]) was 5. For the same molecule, the “Crabgrass plant response rating” value (crabgrass; [8]) was 9, the “Crabgrass plant response rating” value (crabgrass; [2]) was 9 and the “Crabgrass plant response rating” value (crabgrass; [3]) was 10. For the same molecule, the “Plant response rating, Crabgrass” value (crabgrass; [4]) was 10, the “Plant response rating, Crabgrass” value (crabgrass; [5]) was 10 and the “Crabgrass plant response rating” value (crabgrass; [6]) was 10. The “Crabgrass plant response rating” value (crabgrass; [9]) was 8, the “Crabgrass plant response rating” value (crabgrass; [10]) was 9 and the “Giant foxtail plant response rating” value (giant foxtail; [8]) was 9. For the same molecule, the “Giant foxtail plant response rating” value (giant foxtail; [2]) was 9, the “Giant foxtail plant response rating” value (giant foxtail; [3]) was 10 and the “Plant response rating, Giant foxtail” value (giant foxtail; [4]) was 10. The “Plant response rating, Giant foxtail” value (giant foxtail; [5]) was 10, the “Giant foxtail plant response rating” value (giant foxtail; [6]) was 10 and the “Giant foxtail plant response rating” value (giant foxtail; [9]) was 8. The “Giant foxtail plant response rating” value (giant foxtail; [10]) was 9, the “Redroot pigweed plant response rating” value (pigweed; [8]) was 5 and the “Redroot pigweed plant response rating” value (pigweed; [3]) was 10. For the same molecule, the “Plant response rating, Redroot pigweed” value (pigweed; [4]) was 10, the “Plant response rating, Redroot pigweed” value (pigweed; [5]) was 10 and the “Redroot pigweed plant response rating” value (pigweed; [6]) was 10. The “Redroot pigweed plant response rating” value (pigweed; [9]) was 3, the “Plant response rating, Redroot pigweed” value (pigweed; [11]) was 8 and the “Redroot pigweed plant response rating” value (pigweed; [10]) was 8. The “Soybean plant response rating” value (soybean; [8]) was 6, the “Soybean plant response rating” value (soybean; [3]) was 0 and the “Plant response rating, Soybean” value (soybean; [4]) was 7. The “Plant response rating, Soybean” value (soybean; [5]) was 8, the “Soybean plant response rating” value (soybean; [6]) was 9 and the “Soybean plant response rating” value (soybean; [9]) was 4. The “Plant response rating, Soybean” value (soybean; [11]) was 7, the “Soybean plant response rating” value (soybean; [10]) was 7 and the “Sugarbeets plant response rating” value (sugar beet; [8]) was 4. The “Sugarbeets plant response rating” value (sugar beet; [3]) was 8, the “Sugarbeets plant response rating (0 to 10 scale)” value (sugar beet; [12]) was 10 and the “Plant response rating, Sugarbeets” value (sugar beet; [13]) was 10. The “Sugarbeets plant response rating” value (sugar beet; [6]) was 10, the “Sugarbeets plant response rating” value (sugar beet; [9]) was 3 and the “Plant response rating, Sugarbeets” value (sugar beet; [14]) was 6. The “Sugarbeets plant response rating” value (sugar beet; [10]) was 7, the “Velvetleaf plant response rating” value (velvetleaf; [8]) was 2 and the “Velvetleaf plant response rating” value (velvetleaf; [3]) was 5. For the same molecule, the “Velvetleaf plant response rating (0 to 10 scale)” value (velvetleaf; [12]) was 7, the “Plant response rating, Velvetleaf” value (velvetleaf; [13]) was 10 and the “Velvetleaf plant response rating” value (velvetleaf; [6]) was 10. The “Velvetleaf plant response rating” value (velvetleaf; [9]) was 0, the “Plant response rating, Velvetleaf” value (velvetleaf; [14]) was 6 and the “Velvetleaf plant response rating” value (velvetleaf; [10]) was 6. The “Wheat plant response rating” value (wheat; [8]) was 0, the “Wheat plant response rating” value (wheat; [3]) was 0 and the “Wheat plant response rating (0 to 10 scale)” value (wheat; [12]) was 5. The “Plant response rating, Wheat” value (wheat; [13]) was 9, the “Wheat plant response rating” value (wheat; [6]) was 10 and the “Wheat plant response rating” value (wheat; [9]) was 0. For the same molecule, the “Plant response rating, Wheat” value (wheat; [14]) was 5, the “Wheat plant response rating” value (wheat; [10]) was 6 and the “Wild oats plant response rating” value (wild oat; [8]) was 0. For the same molecule, the “Wild oats plant response rating” value (wild oat; [3]) was 8, the “Wild oats plant response rating (0 to 10 scale)” value (wild oat; [12]) was 10 and the “Plant response rating, Wild oats” value (wild oat; [13]) was 10. For the same molecule, the “Wild oats plant response rating” value (wild oat; [6]) was 10, the “Wild oats plant response rating” value (wild oat; [9]) was 0 and the “Plant response rating, Wild oats” value (wild oat; [14]) was 4. For the same molecule, the “Wild oats plant response rating” value (wild oat; [10]) was 7, the “Nutsedge plant response rating” value (purple nutsedge; [8]) was 0 and the “Nutsedge plant response rating” value (purple nutsedge; [2]) was 0. For the same molecule, the “Nutsedge plant response rating” value (purple nutsedge; [3]) was 0, the “Plant response rating, Nutsedge” value (purple nutsedge; [4]) was 0 and the “Plant response rating, Nutsedge” value (purple nutsedge; [5]) was 0. For the same molecule, the “Nutsedge plant response rating” value (purple nutsedge; [6]) was 0, the “Nutsedge plant response rating” value (purple nutsedge; [9]) was 0 and the “Nutsedge plant response rating” value (purple nutsedge; [10]) was 4. The “Rice plant response rating” value (rice; [15]) was 0, the “Rice plant response rating” value (rice; [16]) was 0 and the “Plant response rating, Rice” value (rice; Rate 250 g/ha, Postemergence (flood test), scale 0 to 10, 0 is no effect, 10 is complete control) was 0. For the same molecule, the “Rice plant response rating” value (rice; [17]) was 0, the “Plant response rating, Rice” value (rice; [18]) was 0 and the “Rice plant response rating” value (rice; [19]) was 0. The “Rice plant response rating” value (rice; [20]) was 0, the “Rice plant response rating” value (rice; [21]) was 7 and the “Ducksalad plant response rating” value (duck salad; [15]) was 0. For the same molecule, the “Ducksalad plant response rating” value (duck salad; [16]) was 0, the “Ducksalad plant response rating” value (duck salad; [17]) was 0 and the “Plant response rating, Ducksalad” value (duck salad; [18]) was 0. For the same molecule, the “Ducksalad plant response rating” value (duck salad; [19]) was 0, the “Ducksalad plant response rating” value (duck salad; [20]) was 1 and the “Ducksalad plant response rating” value (duck salad; [21]) was 6. The “Ducksalad plant response rating” value (duck salad; flood test, listed under Postemergence, Rate 250 g/ha, scale 0 to 10, 0 no effect, 10 complete control) was 0.
